Patent US20100298305A1, “TIZANIDINE FOR THE TREATMENT OF POST-TRAUMATIC STRESS DISORDER AND NIGHTMARES” (The United States Government, as represented by the …, priority 2008, published 2010)
Like-named read-outs stand apart in the source and are kept apart here.

What was measured:
PTSD [1] = assay: Example 1 case summaries 1-6: tizanidine as adjunctive treatment for PTSD, anxiety, depression, psychosis or impaired cognition; format: in vivo, human; conditions: for signs or symptoms: Case 3, more than two years, sertraline 250 mg daily, divalproex sodium 2500 mg daily, quetiapine 100 mg twice daily and 400 mg at bedtime, amitriptyline 25 mg at bedtime, tramadol 50 mg as needed
Procedure: Treatment was begun with sertraline 100 mg per day for anxiety and nortriptyline 25 mg at bedtime for headaches. […] Treatment with tizanidine was started and the dose was increased to 8 mg at bedtime.
Tizanidine was started and titrated up to 4 mg at bedtime along with aripiprazole (15 mg at bedtime) and clonazepam (0.5 mg daily).
These medications included sertraline (250 mg daily), divalproex sodium (2500 mg daily), quetiapine (100 mg twice daily and 400 mg at bedtime), amitriptyline (25 mg at bedtime), and tramadol (50 mg as needed for severe headache). […] A trial of tizanidine was started and the dose was titrated up to 8 mg at bedtime.
Pharmacologic Treatment and Response: While on the psychiatry unit, they were treated with sertraline for PTSD and nortriptyline for headaches and depression. […] They were started on tizanidine 4 mg at bedtime.
After approximately one year, subject agreed to a trial of tizanidine as an addition to sertraline. […] They agreed to increase the dose to 4 mg at bedtime and follow-up in four weeks. […] An atypical antipsychotic medication, aripiprazole, was added to their medications.
Treatment with tizanidine 4 mg at bedtime was added to the existing sertraline.

PTSD [2] = assay: Example 2 case summaries 7-9: switching from once to twice-daily dosing of tizanidine; conditions: for improvement on medications: approximately one year, doses close to the maximum recommended dose
Procedure: They were continued on aripiprazole, quetiapine, sertraline, and trazodone. Treatment with tizanidine was started for the nightmares and poor sleep.
They were switched from tizanidine 8 mg at bedtime to tizanidine 6 mg in the morning and 8 mg at bedtime. […] They continued on the sertraline, divalproex, and trazodone for initial insomnia. The tizanidine was switched to 4 mg in the morning and 4 mg at bedtime.
Subject was started on tizanidine up to 8 mg at bedtime for nightmares. They also were issued a device to assist with memory problems. A rating scale for common cognitive problems was administered by speech pathology prior to issuing them a personal digital assistant as a memory assist device.
They continued to take sertraline and tizanidine. At a psychology evaluation session, subject completed two self-report instruments of PTSD and depressive symptoms to establish a baseline indication of symptom severity. […] Subject was then switched from tizanidine 8 mg at bedtime to 4 mg twice daily.
After approximately one year of being followed in the psychiatry clinic, they became more willing to try medication and agreed to a trial of tizanidine.

PTSD [3] = conditions: Case 10; for ADHD symptoms: earlier medication trials during military service
Description: Given the prior history of ADHD, methylphenidate was cautiously added to the venlafaxine. […] They were referred to a specialty inpatient program for PTSD. During the inpatient program, the antidepressant was switched from venlafaxine to duloxetine.

[4] = Case 1, sertraline 100 mg per day with nortriptyline 25 mg at bedtime, after four weeks
[5] = Case 4, sertraline with nortriptyline, five days after hospital discharge
[6] = Case 8, sertraline 150 mg per day, two months later

## CN(C)CCC=C1c2ccccc2CCc2ccccc21 [amitriptyline]
PTSD [1]
  signs or symptoms: None of these medications significantly reduced their signs or symptoms

## O=C1CCc2ccc(OCCCCN3CCN(c4cccc(Cl)c4Cl)CC3)cc2N1 [aripiprazole]
PTSD [2]; Case 7
  improvement on medications: only modest improvement

## CC(NC(C)(C)C)C(=O)c1cccc(Cl)c1 (stereo not shown) [bupropion]
PTSD [3]
  ADHD symptoms: neither of which were effective

## CCCC(CCC)C(=O)O [divalproex sodium]
PTSD [1]
  signs or symptoms: None of these medications significantly reduced their signs or symptoms
PTSD [2]; Case 7
  improvement on medications: only modest improvement

## CNCC[C@H](Oc1cccc2ccccc12)c1cccs1 [duloxetine]
PTSD [3]; antidepressant switched from venlafaxine to duloxetine
  helpfulness as judged by subject: did not believe the duloxetine was helpful

## OCCOCCN1CCN(C(c2ccccc2)c2ccc(Cl)cc2)CC1 (stereo not shown) [hydroxyzine]
PTSD [2]; Case 7
  improvement on medications: only modest improvement

## COC(=O)C(c1ccccc1)C1CCCCN1 (stereo not shown) [methylphenidate]
PTSD [3]
  ADHD symptoms: neither of which were effective
PTSD [3]; methylphenidate added to venlafaxine
  mood and anxiety symptoms: marked improvement
PTSD [3]; methylphenidate as monotherapy, several weeks
  mood and anxiety symptoms: improved mood and anxiety symptoms
PTSD [3]; short-acting methylphenidate 10 mg three times daily
  mood, anxiety, and cognitive symptoms: additional improvements

## COc1cc2nc(N3CCN(C(=O)c4ccco4)CC3)nc(N)c2cc1OC [prazosin]
PTSD [1]; Case 2, prazosin 5 mg at bedtime added, sertraline increased to 200 mg daily
  nightmares: reduced but did not eliminate nightmares

## OCCOCCN1CCN(C2=Nc3ccccc3Sc3ccccc32)CC1 [quetiapine]
PTSD [1]; Case 2, trial of quetiapine
  hallucinations: did not affect the hallucinations
PTSD [1]
  signs or symptoms: None of these medications significantly reduced their signs or symptoms
PTSD [2]; Case 7
  improvement on medications: only modest improvement

## CN[C@H]1CC[C@@H](c2ccc(Cl)c(Cl)c2)c2ccccc21 [sertraline]
PTSD [1]; [4]
  anxiety, depression, and psychosis: only a modest decrease
  intensity and frequency of nightmares: unchanged
PTSD [1]; Case 2, sertraline 200 mg daily, bupropion 150 mg twice daily and prazosin 5 mg at bedtime, one year
  anxiety, nightmares, and psychosis: only a mild impact
PTSD [1]
  signs or symptoms: None of these medications significantly reduced their signs or symptoms
PTSD [1]; [5]
  hallucinations and paranoia: improvements regarding hallucinations and paranoia
  sleep problems and nightmares: persistent sleep problems and nightmares
PTSD [1]; Case 5, sertraline increased to 200 mg per day with sodium divalproex and aripiprazole added, twelve months
  response to medication changes: only a modest response
PTSD [1]; Case 5, sertraline since release from military duty
  treatment results: poor results
PTSD [1]; Case 6, sertraline up to 200 mg per day, approximately one year
  PTSD signs and symptoms: only modest improvement
PTSD [2]; Case 7
  improvement on medications: only modest improvement
PTSD [2]; [6]
  anxiety symptoms: responded well
  irritability: not improved

## CC1(C)O[C@@H]2[C@@H](CO[C@@]3(COS(N)(=O)=O)OC(C)(C)O[C@@H]23)O1 [topiramate]
PTSD [2]; Case 7, recent addition of topiramate
  frequency of combined visual-olfactory hallucinations: did not reduce the frequency

## COc1cccc(C2(O)CCCCC2CN(C)C)c1 (stereo not shown) [tramadol]
PTSD [1]
  signs or symptoms: None of these medications significantly reduced their signs or symptoms

## O=c1n(CCCN2CCN(c3cccc(Cl)c3)CC2)nc2ccccn12 [trazodone]
PTSD [2]; Case 7
  improvement on medications: only modest improvement

## COc1ccc(C(CN(C)C)C2(O)CCCCC2)cc1 (stereo not shown) [venlafaxine]
PTSD [1]; Case 2, sertraline switched to venlafaxine up to 300 mg daily, six months
  condition: did not significantly change their condition
PTSD [2]; Case 8, Venlafaxine up to 150 mg daily
  adverse effect: developed akathisia
PTSD [3]; venlafaxine sustained-release 225 mg per day with zolpidem 10 mg at bedtime
  mood and anxiety symptoms: only modestly improved

## Cc1ccc(-c2nc3ccc(C)cn3c2CC(=O)N(C)C)cc1 [zolpidem]
PTSD [2]; Case 8, initial treatment with zolpidem
  nightmares: did not improve the nightmares
